Data published in ChEMBL document CHEMBL6087436, “The novel β-hairpin antimicrobial peptide D-G(RF)3 demonstrates exceptional antibacterial efficacy” (Eur J Med Chem, 2025).
In brackets after ≈: the same amount, converted by molar mass. Activity calls are given as the source filed them. The calls are words filed in the database; no cut-off is given here.

Tests used:
Pseudomonas aeruginosa [1] = assay: Antibacterial activity against Pseudomonas aeruginosa ATCC 27853 in presence of 4 uM FeCl3; assay type: functional, organism-based
[2] = Acute toxicity in male balb/c mouse assessed as hepatocyte necrosis at 81.28 mg/kg, ip by H and E staining based analysis; assay type: organism-based; details: in vivo
Klebsiella pneumoniae [3] = assay: Inhibition of biofilm formation in Klebsiella pneumoniae ATCC 700603 incubated for 24 hrs by crystal violet staining based analysis; assay type: functional, organism-based; details: dose 1-32 µM
Klebsiella pneumoniae [4] = assay: Antibacterial activity against Klebsiella pneumoniae ATCC 700603 assessed as inhibition of bacterial growth incubated for 18 hrs by microbroth dilution assay; assay type: functional
Pseudomonas aeruginosa [5] = assay: Induction of drug resistance in Pseudomonas aeruginosa ATCC 27853 assessed as fold increase in MIC incubated for 24 hrs and measured under 40 passages; assay type: functional
Cell membrane [6] = assay: Induction of cell membrane permeability in Staphylococcus aureus assessed as agglutination with leaked contents at 2 times MIC measured after 2 hrs by SEM analysis; assay type: subcellular
[7] = Acute toxicity in male balb/c mouse assessed as mortality at 63.2 to 100 mg/kg, ip measured after 7 days by karber method; assay type: organism-based; details: in vivo, 168 h, dose 63.2-100 mg/kg, time 7 day
Klebsiella pneumoniae [8] = assay: In vivo antibacterial activity against Klebsiella pneumoniae ATCC 700603 infected in male Balb/c mouse lung infection model assessed as reduction in pulmonary bacterial load at 10 mg/kg, ip measured after 24 hrs (reference value: 3.05 x 10^9 CFU/g); assay type: functional
Cell membrane [9] = assay: Induction of cell membrane permeability in Staphylococcus aureus assessed as rupture of bacteria with leaked contents at 2 times MIC measured after 30 mins by SEM analysis; assay type: subcellular
Staphylococcus aureus [10] = assay: Additive antibacterial activity against Staphylococcus aureus assessed as fractional inhibitory concentration index in presence of ciprofloxacin incubated for 18 hrs by checkerboard method; assay type: functional
[11] = Acute toxicity in male balb/c mouse assessed as renal necrosis at 81.28 mg/kg, ip by H and E staining based analysis; assay type: organism-based; details: in vivo
Escherichia coli [12] = assay: Additive antibacterial activity against Escherichia coli assessed as fractional inhibitory concentration index in presence of kanamycin incubated for 18 hrs by checkerboard method; assay type: functional
Cell membrane [13] = assay: Induction of Inner membrane permeabilization in Escherichia coli ML-35 ATCC […] at 2 times MIC measured every 5 mins for 120 mins by ONPG dye based assay; assay type: subcellular
Klebsiella pneumoniae [14] = assay: Bactericidal activity against Klebsiella pneumoniae ATCC 700603 assessed as bacterial eradication by measuring bacterial counts at 2 times MIC measured after 30 mins by Time killing assay relative to control; assay type: functional; details: 0.5 h
[15] = test system: Staphylococcus epidermidis; assay: Antibacterial activity against Staphylococcus epidermidis ATCC 12228 assessed as inhibition of bacterial growth incubated for 18 hrs by microbroth dilution assay; assay type: functional
Staphylococcus aureus [16] = assay: Additive antibacterial activity against Staphylococcus aureus assessed as fractional inhibitory concentration index in presence of polymyxin B incubated for 18 hrs by checkerboard method; assay type: functional
Klebsiella pneumoniae [17] = assay: Bactericidal activity against Klebsiella pneumoniae ATCC 700603 assessed as bacterial eradication by measuring bacterial counts at 1 times MIC measured after 30 mins by Time killing assay relative to control; assay type: functional; details: 0.5 h
Escherichia coli [18] = assay: Antimicrobial activity against Escherichia coli at 2 times MIC in presence of LPS preincubated for 1 hr followed by bacterial addition and measured after 6 hrs by LPS competitive inhibition assay; assay type: functional, organism-based
Cell membrane [19] = assay: Induction of Cytoplasmic membrane depolarization in Staphylococcus aureus at 4 times MIC measured for every 10 mins by DiSC3(5) dye based fluorescence method; assay type: subcellular
Escherichia coli [20] = assay: Synergistic antibacterial activity against Escherichia coli assessed as fractional inhibitory concentration index in presence of kanamycin incubated for 18 hrs by checkerboard method; assay type: functional
Cell membrane [21] = assay: Induction of cell membrane permeability in Staphylococcus aureus assessed as bacterial aggregation at 2 times MIC measured after 30 mins by SEM analysis; assay type: subcellular
Cell membrane [22] = assay: Induction of cell membrane permeability in Staphylococcus aureus assessed as bacterial collapse at 2 times MIC by SEM analysis; assay type: subcellular
Klebsiella pneumoniae [23] = assay: Bactericidal activity against Klebsiella pneumoniae ATCC 700603 assessed as bacterial eradication by measuring bacterial counts at 2 times MIC measured after 15 mins by Time killing assay relative to control; assay type: functional; details: 0.25 h
Cell membrane [24] = assay: Induction of cell membrane permeability in Staphylococcus aureus assessed as bacterial aggregation into clusters at 2 times MIC measured after 30 mins by SEM analysis; assay type: subcellular
Cell membrane [25] = assay: Induction of cell membrane permeability in Staphylococcus aureus assessed as bacterial dissolution at 2 times MIC measured after 2 hrs by SEM analysis; assay type: subcellular
Pseudomonas aeruginosa [26] = assay: Synergistic antibacterial activity against Pseudomonas aeruginosa assessed as fractional inhibitory concentration index in presence of polymyxin B incubated for 18 hrs by checkerboard method; assay type: functional
Staphylococcus aureus [27] = assay: Synergistic antibacterial activity against Staphylococcus aureus assessed as fractional inhibitory concentration index in presence of polymyxin B incubated for 18 hrs by checkerboard method; assay type: functional
[28] = Acute toxicity in male balb/c mouse assessed as renal intracellular bleeding at 45.33 mg/kg, ip by H and E staining based analysis; assay type: organism-based; details: in vivo
Cell membrane [29] = assay: Induction of cell membrane permeability in Staphylococcus aureus assessed as bacterial aggregation into breakage at 2 times MIC measured after 30 mins by SEM analysis; assay type: subcellular
Escherichia coli [30] = assay: Inhibition of biofilm formation in Escherichia coli ATCC 25922 at 1 uM incubated for 24 hrs by crystal violet staining based analysis; assay type: functional, organism-based
Cell membrane [31] = assay: Induction of cell membrane permeability in Staphylococcus aureus assessed as bacterial aggregation into breakage at 2 times MIC measured after 2 hrs by SEM analysis; assay type: subcellular
Cell membrane [32] = assay: Induction of Outer membrane permeabilization in Escherichia coli at 1 times MIC by NPN-dye based fluorescence analysis; assay type: subcellular
Staphylococcus aureus [33] = assay: Synergistic antibacterial activity against Staphylococcus aureus assessed as fractional inhibitory concentration index in presence of ciprofloxacin incubated for 18 hrs by checkerboard method; assay type: functional
Cell membrane [34] = assay: Induction of cell membrane permeability in Staphylococcus aureus assessed as bacterial adhesion at 2 times MIC by SEM analysis; assay type: subcellular
Cell membrane [35] = assay: Induction of Cytoplasmic membrane depolarization in Escherichia coli at 1 to 4 times MIC measured for every 10 mins by DiSC3(5) dye based fluorescence method; assay type: subcellular
[36] = Acute toxicity in male balb/c mouse assessed as mortality at 25 to 50 mg/kg, ip measured after 50 mins by karber method; assay type: organism-based; details: in vivo, dose 25-50 mg/kg
[37] = Acute toxicity in male balb/c mouse assessed as hepatocyte necrosis at 45.33 mg/kg, ip by H and E staining based analysis; assay type: organism-based; details: in vivo
Cell membrane [38] = assay: Induction of Inner membrane permeabilization in Escherichia coli ML-35 ATCC […] at 4 times MIC measured every 5 mins for 120 mins by ONPG dye based assay; assay type: subcellular
Cell membrane [39] = assay: Induction of cell membrane permeability in Staphylococcus aureus assessed as bacterial dissolution at 2 times MIC measured after 30 mins by SEM analysis; assay type: subcellular
Cell membrane [40] = assay: Induction of cell membrane permeability in Staphylococcus aureus assessed as bacterial aggregation into clusters at 2 times MIC measured after 2 hrs by SEM analysis; assay type: subcellular

N=C(N)NCCC[C@H](NC(=O)CNC(=O)[C@H]1CCCN1C(=O)[C@H](CCCNC(=N)N)NC(=O)[C@H](Cc1ccccc1)NC(=O)[C@H](CCCNC(=N)N)NC(=O)[C@H](Cc1ccccc1)NC(=O)[C@H](CCCNC(=N)N)NC(=O)[C@@H](N)Cc1ccccc1)C(=O)N[C@@H](Cc1ccccc1)C(=O)N[C@@H](CCCNC(=N)N)C(=O)N[C@@H](Cc1ccccc1)C(=O)N[C@@H](CCCNC(=N)N)C(=O)N[C@@H](Cc1ccccc1)C(N)=O
Activity (Pseudomonas aeruginosa [1]): Active
Activity [2]: Toxic
inhibition (Klebsiella pneumoniae [3]): Dose-dependent-effect
MIC (Klebsiella pneumoniae [4]): 8 µM (≈ 15.9 µg/mL)
fold change (FC) (Pseudomonas aeruginosa [5]): <4
Activity (Cell membrane [6]): Active
Activity [7]: Toxic
Activity (Klebsiella pneumoniae [8]): 4.93 10^7CFU/g
Activity (Cell membrane [9]): Active
fractional inhibitory concentration index (FICI) (Staphylococcus aureus [10]): 0.563
Activity [11]: Toxic
fractional inhibitory concentration index (FICI) (Escherichia coli [12]): 0.563
Activity (Cell membrane [13]): Active
Activity (Klebsiella pneumoniae [14]): 100%
MIC [15]: 2 µM (≈ 3.98 µg/mL)
fractional inhibitory concentration index (FICI) (Staphylococcus aureus [16]): 0.625

N=C(N)NCCC[C@@H](NC(=O)CNC(=O)[C@H]1CCCN1C(=O)[C@@H](CCCNC(=N)N)NC(=O)[C@@H](Cc1ccccc1)NC(=O)[C@@H](CCCNC(=N)N)NC(=O)[C@@H](Cc1ccccc1)NC(=O)[C@@H](CCCNC(=N)N)NC(=O)[C@H](N)Cc1ccccc1)C(=O)N[C@H](Cc1ccccc1)C(=O)N[C@H](CCCNC(=N)N)C(=O)N[C@H](Cc1ccccc1)C(=O)N[C@H](CCCNC(=N)N)C(=O)N[C@H](Cc1ccccc1)C(N)=O
Activity (Klebsiella pneumoniae [17]): 100%
Activity (Escherichia coli [18]): inactive
Activity (Pseudomonas aeruginosa [1]): Active
Activity (Cell membrane [19]): Active; Comparable Depolarization To Valinomycin Was Observed
fractional inhibitory concentration index (FICI) (Escherichia coli [20]): 0.313
Activity (Cell membrane [21]): Active
inhibition (Klebsiella pneumoniae [3]): Dose-dependent-effect
MIC (Klebsiella pneumoniae [4]): 8 µM (≈ 15.9 µg/mL)
Activity (Cell membrane [22]): Active
Activity (Klebsiella pneumoniae [23]): 100%
fold change (FC) (Pseudomonas aeruginosa [5]): <4
Activity (Cell membrane [24]): Active
Activity (Cell membrane [25]): Active
fractional inhibitory concentration index (FICI) (Pseudomonas aeruginosa [26]): 0.313
fractional inhibitory concentration index (FICI) (Staphylococcus aureus [27]): 0.375
Activity [28]: Toxic
Activity (Cell membrane [29]): Active
Activity (Klebsiella pneumoniae [8]): 2.48 10^7CFU/g
inhibition (Escherichia coli [30]): Active
Activity (Cell membrane [31]): Active
Activity (Cell membrane [32]): Active; Comparable Permeability To Polymyxin B Was Observed
fractional inhibitory concentration index (FICI) (Staphylococcus aureus [33]): 0.313
Activity (Cell membrane [34]): Active
Activity (Cell membrane [35]): Active
Activity [36]: Toxic
Activity [37]: Toxic
MIC [15]: 2 µM (≈ 3.98 µg/mL)
Activity (Cell membrane [38]): Active
Activity (Cell membrane [39]): Active
Activity (Cell membrane [40]): Active
